Measurements taken from ChEMBL document CHEMBL5360621, “Discovery and Optimization of a STING Agonist Platform for Application in Antibody Drug Conjugates” (J Med Chem, 2023).

The compounds below were run against Stimulator of interferon genes protein (Homo sapiens, UniProt Q86WV6) (assay: Agonist activity at STING in digitonin-permeabilized human THP1-Dual cells expressing NF-kappaB-SEAP and IRF-Lucia luciferase reporter assessed as increase in IRF-luciferase activation incubated for 24 hrs by QUANTI-Luc assay).
Sequence of Stimulator of interferon genes protein (Q86WV6 whole entry): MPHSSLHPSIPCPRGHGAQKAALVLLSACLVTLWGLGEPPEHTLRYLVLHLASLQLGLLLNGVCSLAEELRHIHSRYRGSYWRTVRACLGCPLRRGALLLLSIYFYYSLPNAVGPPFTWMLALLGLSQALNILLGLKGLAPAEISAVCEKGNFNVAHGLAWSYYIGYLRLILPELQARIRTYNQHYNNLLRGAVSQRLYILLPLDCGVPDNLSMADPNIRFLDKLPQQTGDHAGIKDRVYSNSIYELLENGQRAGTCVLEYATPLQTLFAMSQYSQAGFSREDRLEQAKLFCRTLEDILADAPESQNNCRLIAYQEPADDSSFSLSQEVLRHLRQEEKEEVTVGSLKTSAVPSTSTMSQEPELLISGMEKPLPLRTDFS
Assay type: cell-based

SMILES	EC50
CCc1nc(C)oc1C(=O)/N=c1\sc2cc(C(N)=O)cnc2n1C/C=C/Cn1c(NC(=O)c2oc(C)nc2CC)nc2cc(C(N)=O)cc(OCCCO)c21	90 nM
COc1cc(C(N)=O)cc2nc(NC(=O)c3cnc(C)n3C)n(C/C=C/Cn3c(NC(=O)c4cnc(C)n4C)nc4cc(C(N)=O)cc(OCCCO)c43)c12	> 100000 nM
CCc1nn(C)cc1C(=O)Nc1nc2cc(C(N)=O)cc(OC)c2n1C/C=C/Cn1c(NC(=O)c2cn(C)nc2CC)nc2cc(C(N)=O)cc(OCCCO)c21	5000 nM
CCn1nc(C)cc1C(=O)Nc1nc2cc(C(N)=O)cnc2n1C/C=C/Cn1c(NC(=O)c2cc(C)nn2CC)nc2cc(C(N)=O)cc(OCCCO)c21	60 nM
CCc1nc(C)oc1C(=O)/N=c1\sc2cc(C(N)=O)cc(OCCCO)c2n1C/C=C/Cn1c(NC(=O)c2oc(C)nc2CC)nc2cc(C(N)=O)cnc21	150 nM
COc1cc(C(N)=O)cc2nc(NC(=O)c3cnc(C)o3)n(C/C=C/Cn3c(NC(=O)c4cnc(C)o4)nc4cc(C(N)=O)cc(OCCCO)c43)c12	> 100000 nM
CCc1nc(C)sc1C(=O)Nc1nc2cc(C(N)=O)cc(OC)c2n1C/C=C/Cn1c(NC(=O)c2sc(C)nc2CC)nc2cc(C(N)=O)cc(OCCCO)c21	270 nM
COc1cc(C(N)=O)cc2nc(NC(=O)c3nc(C)oc3C)n(C/C=C/Cn3c(NC(=O)c4nc(C)oc4C)nc4cc(C(N)=O)cc(OCCCO)c43)c12	> 100000 nM
CCc1nc(C)oc1C(=O)/N=c1\sc2cc(C(N)=O)cc(OC)c2n1C/C=C/Cn1c(NC(=O)c2oc(C)nc2CC)nc2cc(C(N)=O)cc(OCCCO)c21	60 nM
CCc1nc(C)sc1C(=O)Nc1nc2cc(C(N)=O)cc(OCCCO)c2n1C/C=C/Cn1c(NC(=O)c2cc(C)nn2CC)nc2cc(C(N)=O)cc(OC)c21	20 nM
CCc1ncoc1C(=O)/N=c1\sc2cc(C(N)=O)cc(OC)c2n1C/C=C/Cn1c(NC(=O)c2ocnc2CC)nc2cc(C(N)=O)cc(OCCCO)c21	> 100000 nM
CCc1nn(C)cc1C(=O)Nc1nc2cc(C(N)=O)cc(OCCCO)c2n1C/C=C/Cn1c(NC(=O)c2cc(C)nn2CC)nc2cc(C(N)=O)cc(OC)c21	20 nM
CCn1nc(C)cc1C(=O)/N=c1\sc2cc(C(N)=O)cc(OC)c2n1C/C=C/Cn1c(NC(=O)c2oc(C)nc2C)nc2cc(C(N)=O)cc(OCCCO)c21	> 100000 nM
CCc1nc(C)oc1C(=O)Nc1nc2cc(C(N)=O)cc(OC)c2n1C/C=C/Cn1c(NC(=O)c2cnc(C)o2)nc2cc(C(N)=O)cc(OCCCO)c21	> 100000 nM
CCn1nc(C)cc1C(=O)Nc1nc2cc(C(N)=O)cnc2n1C/C=C/Cn1c(NC(=O)c2oc(C)nc2C)nc2cc(C(N)=O)cc(OCCCO)c21	3200 nM

Next, values leading:

EC50	SMILES
10 nM	CCn1nc(C)cc1C(=O)Nc1nc2cc(C(N)=O)cc(OC)c2n1C/C=C/Cn1c(NC(=O)c2cc(C)nn2CC)nc2cc(C(N)=O)cc(OCCCN)c21
5 nM	CCn1nc(C)cc1C(=O)/N=c1\sc2cc(C(N)=O)cc(OC)c2n1C/C=C/Cn1c(NC(=O)c2cc(C)nn2CC)nc2cc(C(N)=O)cc(OCCCO)c21
9 nM	CCc1nc(C)oc1C(=O)Nc1nc2cc(C(N)=O)cc(OC)c2n1C/C=C/Cn1c(NC(=O)c2cc(C)nn2CC)nc2cc(C(N)=O)cc(OCCCO)c21
20 nM	CCc1nc(C)oc1C(=O)Nc1nc2cc(C(N)=O)cc(OCCCO)c2n1C/C=C/Cn1/c(=N/C(=O)c2cc(C)nn2CC)sc2cc(C(N)=O)cc(OC)c21
7 nM	CCc1nc(C)oc1C(=O)Nc1nc2cc(C(N)=O)cnc2n1C/C=C/Cn1c(NC(=O)c2oc(C)nc2CC)nc2cc(C(N)=O)cc(OCCCO)c21
1 nM	CCc1nc(C)oc1C(=O)Nc1nc2cc(C(N)=O)cc(OC)c2n1C/C=C/Cn1c(NC(=O)c2oc(C)nc2CC)nc2cc(C(N)=O)cc(OCCCO)c21
4 nM	CCc1nc(C)oc1C(=O)Nc1nc2cc(C(N)=O)cc(OCCCO)c2n1C/C=C/Cn1c(NC(=O)c2cc(C)nn2CC)nc2cc(C(N)=O)cnc21
1 nM	CCn1nc(C)cc1C(=O)Nc1nc2cc(C(N)=O)cc(OC)c2n1C/C=C/Cn1c(NC(=O)c2cc(C)nn2CC)nc2cc(C(N)=O)cc(OCCCO)c21
18 nM	CCn1nc(C)cc1C(=O)Nc1nc2cc(C(N)=O)cc(OC)c2n1C/C=C/Cn1c(NC(=O)c2cc(C)nn2CC)nc2cc(C(N)=O)cc(OCCCC(=O)O)c21
1 nM	CCc1nc(C)oc1C(=O)Nc1nc2cc(C(N)=O)cc(OCCCO)c2n1C/C=C/Cn1c(NC(=O)c2cc(C)nn2CC)nc2cc(C(N)=O)cc(OC)c21
